Patent US20130072863A1, “CARBON DIOXIDE GAS MIST PRESSURE BATH METHOD AND CARBON DIOXIDE GAS MIST PRESSURE BATH APPARATUS FOR PREVENTING, IMPROVING OR CURING MYOCARDIAL INFARCTION” (priority 2010, published 2013)

Experiments:
myocardial infarction = assay: measuring the tissue pH over weeks of treatment; format: in vivo, wistar rats
Method: The composition to be sealed under pressure into the carbon dioxide gas mist pressure bath means was experimented in the four kinds of the control (C), non-treated myocardial infarction (NM), CO2 mist (M) and CO2 gas. The number practiced by each of the gases is 8, 9, 8 and 5 individuals. In each of treatments, the pH changes of the individuals are measured in the pre-treatment (Δ1 day), one week after the treatment (Δ1 wks), two week after the treatment (Δ2 wks), and three week after the treatment (Δ3 wks). To explain Table 5 concretely, the control (C) was experimented to 8 individuals, as to the values of pH of the respective individuals are measured 1 week (Δ1 wks) after the treatment, 2 weeks (Δ2 wks) after the treatment, and (Δ3 wks) after the treatment. As to the changing values of pH of the respective individuals, making the reference values of the values when having calculated the average values of pH of 8 individuals measured before the treatment (Δ1 day), Table 5 expresses this reference value as “0.000”. Similarly, also as to three kinds of gases of the non treated myocardial infarction (NM), CO2 mist and CO2 gas (CG), making the reference values of the values when having calculated the average values of the changing values in pH before the treatment (Δ1 day), Table 5 expresses this reference value as “0.000”. The average values of the changing values of pH in the respective individuals measured at 1 week (Δ1 wks) after the treatment, 2 weeks (Δ2 wks) after the treatment and (Δ3 wks) after the treatment are shown with the respective changing amounts from the respective reference values. […] The numbers of the individuals practiced with the gases are 8, 9, 8 and 5 pieces, respectively, providing that the average values of pH are shown as they are pre-treatment (day 1), 1 week (Δ1 wks) after the treatment, 2 weeks (Δ2 wks) after the treatment, and (Δ3 wks) after the treatment.

[1] = test system: models of myocardial infarction; assay: laser tissue blood oxygen monitor measurement in the tissue during pressure bath treatment with four kinds of gases; format: in vivo, male wistar rats
Source text: The compositions of gases sealed under pressure in the carbon dioxide gas mist pressure bath means were subjected to the experiments using the four kinds of air mist (AM), CO2 gas (CG), CO2 mist (CM) and 100% oxygen mist (OM). Each of gases was sealed under pressure in the carbon dioxide gas mist pressure bath means, and the treatments were practiced. The numbers of the individuals were 13, 14, 15 and 11 pieces, respectively. Each of the individuals was intubated into male wistar rats aged of 8 weeks under the pentobarbital anesthesia, subjected to the thoracotomy, and was ligated at the coronary left-front rami descendens for making models of myocardial infarction. As to the treatments to these individuals by the four kinds of gases, the laser tissue blood oxygen monitor carried out measures on the pre-treatment (pre), the respective conditions at 10 min, 20 min and 30 min after starting the treatments, and the volume of oxygenated blood (volume of oxyhemoglobin) in the tissue of the individuals under the conditions (post) after finishing the treatments, and the measured results are shown in Table 1. To concretely explain Table 1, the air mist (AM) was experimented on the 13 individuals, and the laser tissue blood oxygen monitor carried out measures on the pre-treatment (pre), the conditions at 10 min, 20 min and 30 min after the treatments and the volumes of oxyhemoglobin of the respective individuals under the conditions (post) after the treatments. Then, “reference values” were made from values when having calculated the average values of the volume of oxyhemoglobin of the 13 individuals measured with the blood flow meter before the treatments, and Table expresses this average values as “1.000”. […] With respect to the average values of the volume of oxyhemoglobin of the respective individuals at 20 min, 30 min after starting the treatments and at the case of post, the above mentioned reference value made the division calculation on the value when having calculated the reference value of the volumes of oxyhemoglobin of the respective individuals, and the values calculated by the division are shown as the average values. […] The measures at this time also performed in each of the treatments as the pre-treatment (pre), the respective conditions of passing 10 min, 20 min and 30 min after starting the treatments, under the conditions (post) after finishing the treatments. In the results of measuring the treatments of the respective gases, “reference values” were made from values when calculating the average values of the volume of deoxyhemoglobin, the average value was expressed with “1.000” in this Table. The above mentioned reference values made the division calculation on the values when calculating the average values of the amount of deoxyhemoglobin of the respective individuals measured by the laser tissue blood oxygen monitor in the pre-treatment (pre) in the respective individuals of the cases of passing 20 min, 30 min and the condition (post) after finishing the treatments, and the values calculated by the division are shown as the average values. […] The measures performed, also at this time, in each of the gas treatments of the pre-treatment (pre), the respective conditions of 10 min, 20 min, 30 min after starting the treatment, and under the conditions (post) after finishing the treatments. In the results of measuring the treatments of the respective gases, making “reference values” from values when having calculated the average values of the volume of total hemoglobin, the average value is expressed with “1.000” in this Table. […]

[2] = 10 min, relative to pre = 1.000
[3] = 20 min, relative to pre = 1.000
[4] = 30 min, relative to pre = 1.000

O=C=O [CG, carbon dioxide]
tissue pH, average value (myocardial infarction; 1 wks after the treatment): 7.168
change of tissue pH (ΔpH), average value (myocardial infarction; 1 wks after the treatment, change from pre-treatment (1 day) = 0.000): −.084
tissue pH, average value (myocardial infarction; 2 wks after the treatment): 7.340
change of tissue pH (ΔpH), average value (myocardial infarction; 2 wks, change from pre-treatment = 0.000): .090
tissue pH, average value (myocardial infarction; 3 wks after the treatment): 7.306
change of tissue pH (ΔpH), average value (myocardial infarction; 3 wks, change from pre-treatment = 0.000): .050
tissue pH, average value (myocardial infarction; pre-treatment (day 1)): 7.254
StO2 (degree of oxygen saturation in blood in the tissue), average value [1, 2]: 1.027
total Hb (volume of total hemoglobin in the tissue), average value [1, 2]: 1.002
deoxyHb (volume of deoxyhemoglobin in the tissue), average value ([1]; 10 min after starting treatment, relative to pre = 1.000): .974
oxyHb (volume of oxyhemoglobin in the tissue), average value ([1]; 10 min after starting treatment, relative to pre-treatment average = 1.000): 1.030
StO2 (degree of oxygen saturation in blood in the tissue), average value [1, 3]: 1.061
deoxyHb (volume of deoxyhemoglobin in the tissue), average value [1, 3]: .942
total Hb (volume of total hemoglobin in the tissue), average value [1, 3]: 1.010
oxyHb (volume of oxyhemoglobin in the tissue), average value ([1]; 20 min after starting treatment, relative to pre = 1.000): 1.074
StO2 (degree of oxygen saturation in blood in the tissue), average value [1, 4]: 1.063
deoxyHb (volume of deoxyhemoglobin in the tissue), average value [1, 4]: .930
total Hb (volume of total hemoglobin in the tissue), average value [1, 4]: .995
amount of oxyhemoglobin, effect of the treatment in words ([1]; over the course of treatment (FIG. 11)): though not significant, increase of the amount of oxyhemoglobin was recognized
StO2, effect of the treatment in words ([1]; over the course of treatment (FIG. 17)): increases until 20 minutes after the treatment starts
oxyHb (volume of oxyhemoglobin in the tissue), average value ([1]; post (after finishing treatment), relative to pre = 1.000): 1.051
StO2 (degree of oxygen saturation in blood in the tissue), average value ([1]; post, relative to pre = 1.000): 1.065
deoxyHb (volume of deoxyhemoglobin in the tissue), average value ([1]; post, relative to pre = 1.000): .915
total Hb (volume of total hemoglobin in the tissue), average value ([1]; post, relative to pre = 1.000): .981
